Measured values published in paper doi:10.1101/2024.01.03.573903v1 (biorxiv, 2024).

Molecular target: T1, ZIKV NS3 helicase (Zika virus, UniProt Q32ZE1)
T1 sequence (Q32ZE1 1673-2115 limits assumed): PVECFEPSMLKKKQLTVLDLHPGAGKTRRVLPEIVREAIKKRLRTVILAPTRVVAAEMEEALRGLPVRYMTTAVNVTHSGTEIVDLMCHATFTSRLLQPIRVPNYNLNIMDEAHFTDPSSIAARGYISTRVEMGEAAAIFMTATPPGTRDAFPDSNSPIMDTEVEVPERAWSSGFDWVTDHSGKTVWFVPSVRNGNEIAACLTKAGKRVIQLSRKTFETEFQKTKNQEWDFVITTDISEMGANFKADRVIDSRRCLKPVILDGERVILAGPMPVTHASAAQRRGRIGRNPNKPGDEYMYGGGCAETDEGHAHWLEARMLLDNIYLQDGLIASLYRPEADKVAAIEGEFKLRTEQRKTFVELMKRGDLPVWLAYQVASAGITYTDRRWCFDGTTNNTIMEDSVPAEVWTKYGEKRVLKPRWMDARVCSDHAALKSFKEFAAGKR
Assay: malachite green phosphate release NTPase assay
Type: biochemical

Q: How did the IC50 turn out when `COc1cc(/C=C/C(=O)CC(=O)/C=C/c2ccc(O)c(OC)c2)ccc1O` [curcumin] was run?
A: 64.4 µM
